The target in assay [1] is PD-1/PD-L1 PPI (Homo sapiens, UniProt Q9NZQ7). The assay is described as follows: PDL1/PD1 Binding Assay. To be noted: PDL1-6×His 0.3 nM, PD1-Fc-Avi-Biotin 2.5 nM, Acceptor/Donor beads, Envision reader. The essentials: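 AlphaScreen competition: compound (1% DMSO) preincubated 30 min RT with PDL1-6×His (0.3 nM), then PD1-Fc-Avi-Biotin (2.5 nM) 30 min; anti-His acceptor and streptavidin donor beads (20 ug/mL each) added, 1 h each, dark up to overnight. Buffer 25 mM Hepes pH 7.4, 150 mM NaCl. IC50 by four-parameter fit.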

The test system of assay [2] is PD-1/PD-L1 interaction. Briefly: PD-1/PD-L1 NFAT Reporter Assay (co-culture of Jurkat T cells overexpressing PD-1 and PD-L1 expressing CHO cells). In kind it is cell-based. The settings on record: co-culture 6 hrs at 37° C., NFAT-mediated luciferase activity. The essentials: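 Compounds added to CHO cells expressing surface anti-CD3 and PD-L1, then Jurkat cells with PD-1 and NFAT-driven luciferase seeded on top; co-culture 6 hrs at 37° C. Luminescence read after ONE-Glo addition, EC50 from dose-response fit.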

A value given as a limit tells only on which side of the number the result lay.

Chain of PD-1/PD-L1 PPI (Q9NZQ7 19-238 limits assumed): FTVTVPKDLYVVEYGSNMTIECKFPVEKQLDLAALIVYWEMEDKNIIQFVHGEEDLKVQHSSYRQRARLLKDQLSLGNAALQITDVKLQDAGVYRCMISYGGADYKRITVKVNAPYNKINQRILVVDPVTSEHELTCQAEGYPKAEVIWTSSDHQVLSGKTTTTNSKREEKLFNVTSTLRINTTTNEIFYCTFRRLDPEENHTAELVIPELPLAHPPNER

Regarding `COc1nc(-c2cccc(-c3cccc(NC(=O)c4cn(C)c(=O)n(C)c4=O)c3Cl)c2Cl)cc2c1[C@@H](NC[C@@H]1CCC(=O)N1)CC2` (single isomer, unassigned) [Compound A-1], the IC50 in assay [1] is at most 10 nM. The EC50 in assay [2] (Homo sapiens, Jurkat, 6 h) is at most 10 nM.
For `COc1nc(-c2cccc(-c3cccc(NC(=O)c4cn(C)c(=O)n(C)c4=O)c3Cl)c2Cl)cc2c1C(N[C@H]1CCOC[C@H]1O)CC2` (stereo partly drawn) [Compound D-7], the IC50 in assay [1] was at most 10 nM. Also, in assay [2] (Homo sapiens, Jurkat, 6 h), the EC50 was in the range of 10 to 100 nM.
Take `COc1nc(-c2cccc(-c3cccc(NC(=O)c4cn(C)c(=O)n(C)c4=O)c3C)c2C)cc2c1C(N1CC(C)(O)C1)CC2` [Compound D-17]: the IC50 in assay [1] was at most 10 nM. The molecule also returned an EC50 in assay [2] (Homo sapiens, Jurkat, 6 h) of 10 to 100 nM.
In turn, `COc1nc(-c2cccc(-c3cccc(NC(=O)c4cn(C)c(=O)n(C)c4=O)c3C)c2C)cc2c1[C@@H](N[C@@H]1COC[C@@H]1O)CC2` (single isomer, unassigned) [Compound A-105] came in with an IC50 in assay [1] of 10 to 100 nM. This molecule also yielded an EC50 in assay [2] (Homo sapiens, Jurkat, 6 h) of 10 to 100 nM.
Regarding `COc1nc(-c2cccc(-c3cccc(NC(=O)c4ccn[nH]c4=O)c3Cl)c2Cl)cc2c1[C@@H](NC[C@@H]1CCC(=O)N1)CC2` [Compound A-51], in assay [1], the IC50 is at most 10 nM. In assay [2] (Homo sapiens, Jurkat, 6 h), this molecule returned an EC50 of at most 10 nM.
For `COc1nc(-c2cccc(-c3cccc(NC(=O)c4cn(C)c(=O)n(C)c4=O)c3Cl)c2Cl)cc2c1[C@H](N1CC(C(=O)O)C1)CC2` (single isomer, unassigned) [Compound J-4], in assay [1], the IC50 is at most 10 nM. The same molecule came in with an EC50 in assay [2] (Homo sapiens, Jurkat, 6 h) of 100 to 1000 nM.
In turn, `COc1nc(-c2cccc(-c3cccc(NC(=O)c4cn(C)c(=O)n(C)c4=O)c3C)c2Cl)cc2c1[C@H](N[C@@H]1CCOC[C@@H]1O)CC2` (single isomer, unassigned) [Compound A-33] displayed an IC50 in assay [1] of at most 10 nM. Moreover, in assay [2] (Homo sapiens, Jurkat, 6 h), the EC50 was at most 10 nM.
Consider `COc1nc(-c2cccc(-c3cccc(NC(=O)c4cn(C)c(=O)n(C)c4=O)c3C)c2Cl)cc2c1C(NC1CC1)CC2` [Compound D-11], for which, in assay [1], the IC50 was at most 10 nM. This molecule also showed an EC50 in assay [2] (Homo sapiens, Jurkat, 6 h) of 10 to 100 nM.
In assay [1], `COc1nc(-c2cccc(-c3cccc(NC(=O)c4cn(C)c(=O)n(C)c4=O)c3C)c2C)cc2c1[C@@H](N1CC(O)C1)CC2` (single isomer, unassigned) [Compound A-79] yielded an IC50 of 10 to 100 nM. In assay [2] (Homo sapiens, Jurkat, 6 h), this molecule showed an EC50 above 5000 nM.
In assay [1], `COc1nc(-c2cccc(-c3cccc(NC(=O)c4ccnn(C)c4=O)c3C)c2Cl)cc2c1[C@@H](N1CC(C(=O)O)C1)CC2` (single isomer, unassigned) [Compound J-2] came in with a concentration for half-maximal inhibition (IC50) of at most 10 nM. The molecule also had an EC50 in assay [2] (Homo sapiens, Jurkat, 6 h) of at most 10 nM.
In turn, `COc1nc(-c2ccc(F)c(-c3cccc(NC(=O)c4cn(C)c(=O)n(C)c4=O)c3C)c2F)cc2c1[C@@H](NC[C@@H]1CCC(=O)N1)CC2` [Compound A-68] registered an IC50 in assay [1] of at most 10 nM. This molecule also gave an EC50 in assay [2] of 10 to 100 nM.
In assay [1], `COc1nc(-c2cccc(-c3cccc(NC(=O)c4cn(C)c(=O)n(C)c4=O)c3F)c2Cl)cc2c1[C@@H](NC[C@@H]1CCC(=O)N1)CC2` [Compound A-3] showed an IC50 of at most 10 nM. In assay [2] (Homo sapiens, Jurkat, 6 h), this molecule gave an EC50 of at most 10 nM.
Consider `COc1nc(-c2cccc(-c3cccc(NC(=O)c4cn(C)c(=O)n(C)c4=O)c3C)c2C)cc2c1[C@H](N1CC(O)C1)CC2` (single isomer, unassigned) [Compound A-80], for which the IC50 in assay [1] is at most 10 nM. The EC50 in assay [2] (Homo sapiens, Jurkat, 6 h) was 10 to 100 nM.
The matching figures for `COc1nc(-c2cccc(-c3cccc(NC(=O)c4cn(C)c(=O)n(C)c4=O)c3C)c2C)cc2c1[C@H](N1CC(OC)C1)CC2` (single isomer, unassigned) [Compound A-84]: 10 to 100 nM and above 5000 nM.
The matching figures for `COCCOc1nc(-c2cccc(-c3cccc(NC(=O)c4cn(C)c(=O)n(C)c4=O)c3C)c2Cl)cc2c1[C@@H](NC[C@@H]1CCC(=O)N1)CC2` (single isomer, unassigned) [Compound A-115]: at most 10 nM and 10 to 100 nM.
As to `COc1nc(-c2cccc(-c3cccc(NC(=O)c4cn(C)c(=O)n(C)c4=O)c3C)c2C)cc2c1[C@@H](NC[C@@H]1CCC(=O)N1)CC2` [Compound A-5], the IC50 in assay [1] is at most 10 nM. In assay [2] (Homo sapiens, Jurkat, 6 h), this molecule returned an EC50 of at most 10 nM.
With `COc1nc(-c2cccc(-c3cccc(NC(=O)c4cn(C)c(=O)n(C)c4=O)c3C)c2F)cc2c1[C@@H](N[C@@H]1CCOC[C@@H]1O)CC2` (single isomer, unassigned) [Compound A-42], the IC50 in assay [1] was at most 10 nM. Further, in assay [2] (Homo sapiens, Jurkat, 6 h), the EC50 was 10 to 100 nM.
In the same order, the values of `COc1nc(-c2cccc(-c3cccc(NC(=O)c4nn(C)c(=O)n(C)c4=O)c3C)c2Cl)cc2c1[C@@H](NC[C@@H]1CCC(=O)N1)CC2` [Compound A-58] are at most 10 nM and at most 10 nM.
On to `CCOC(=O)C1CN([C@@H]2CCc3cc(-c4cccc(-c5cccc(NC(=O)c6cn(C)c(=O)n(C)c6=O)c5Cl)c4Cl)nc(OC)c32)C1` (single isomer, unassigned) [Compound A-86], for which the IC50 in assay [1] fell in the range of 100 to 1000 nM. In addition, the EC50 in assay [2] (Homo sapiens, Jurkat, 6 h) is above 5000 nM.
In the same order, the values of `COc1nc(-c2cccc(-c3cccc(NC(=O)c4cn(C)c(=O)n(C)c4=O)c3Cl)c2Cl)cc2c1C(N1CC3(CNC(=O)O3)C1)CC2` [Compound D-15] are at most 10 nM and 10 to 100 nM.
The matching figures for `COc1nc(-c2cccc(-c3cccc(NC(=O)c4cn(C)c(=O)n(C)c4=O)c3C)c2C)cc2c1[C@H](N[C@@H]1COC[C@@H]1O)CC2` (single isomer, unassigned) [Compound A-106]: at most 10 nM and 100 to 1000 nM.
In assay [1], `COc1nc(-c2cccc(-c3cccc(Nc4ncnc5cccnc45)c3Cl)c2Cl)cc2c1[C@@H](NC[C@@H]1CCC(=O)N1)CC2` [Compound B-2] displayed a 50% inhibitory concentration (IC50) of at most 10 nM. Also, the EC50 in assay [2] (Homo sapiens, Jurkat, 6 h) is 10 to 100 nM.
In the same order, the values of `CCOC(=O)C1CN([C@H]2CCc3cc(-c4cccc(-c5cccc(NC(=O)c6ccnn(C)c6=O)c5C)c4Cl)nc(OC)c32)C1` (single isomer, unassigned) [Compound A-88] are at most 10 nM and 10 to 100 nM.
Consider `COc1nc(-c2cccc(-c3cc(Cl)cc(NC(=O)c4cn(C)c(=O)n(C)c4=O)c3C)c2Cl)cc2c1[C@@H](NC[C@@H]1CCC(=O)N1)CC2` [Compound A-61], for which the IC50 in assay [1] is at most 10 nM. In assay [2] (Homo sapiens, Jurkat, 6 h), the EC50 is 10 to 100 nM.
In the case of `CCOC(=O)C1CN([C@H]2CCc3cc(-c4cccc(-c5cccc(NC(=O)c6ccnn(C)c6=O)c5Cl)c4Cl)nc(OC)c32)C1` (single isomer, unassigned) [Compound A-87], the IC50 in assay [1] is at most 10 nM. Further, in assay [2] (Homo sapiens, Jurkat, 6 h), the EC50 lay in the range of 10 to 100 nM.
`COc1nc(-c2cccc(-c3cccc(NC(=O)c4nn(C)c(=O)n(C)c4=O)c3Cl)c2Cl)cc2c1[C@H](N[C@@H]1CCOC[C@H]1O)CC2` (single isomer, unassigned) [Compound A-94] registered an IC50 in assay [1] of at most 10 nM. For the same molecule, the EC50 in assay [2] (Homo sapiens, Jurkat, 6 h) was at most 10 nM.
In assay [1], `COc1nc(-c2cccc(-c3cccc(NC(=O)c4nn(C)c(=O)n(C)c4=O)c3C)c2C)cc2c1[C@@H](N[C@@H]1COC[C@@H]1O)CC2` (single isomer, unassigned) [Compound A-111] yielded an IC50 of at most 10 nM. In assay [2] (Homo sapiens, Jurkat, 6 h), this molecule returned an EC50 of 10 to 100 nM.
For `COc1nc(-c2cccc(-c3cc(F)cc(NC(=O)c4nn(C)c(=O)n(C)c4=O)c3C)c2C)cc2c1[C@@H](N[C@@H]1CCOC[C@@H]1O)CC2` (single isomer, unassigned) [Compound A-74], the IC50 in assay [1] was at most 10 nM. For the same molecule, the EC50 in assay [2] (Homo sapiens, Jurkat, 6 h) was in the range of 10 to 100 nM.
The matching figures for `COc1nc(-c2cccc(-c3cccc(NC(=O)c4cn(C)c(=O)n(C)c4=O)c3C)c2C)cc2c1[C@H](N[C@@H]1COC[C@H]1O)CC2` (single isomer, unassigned) [Compound A-98]: at most 10 nM and 100 to 1000 nM.
In the same order, the values of `COc1nc(-c2cccc(-c3cccc(NC(=O)c4cn(C)c(=O)n(C)c4=O)c3C)c2C)cc2c1[C@@H](N[C@@H]1CCOC[C@H]1O)CC2` (single isomer, unassigned) [Compound A-89] are 10 to 100 nM and 1000 to 10000 nM.
In the same order, the values of `COc1nc(-c2cccc(-c3cccc(NC(=O)c4nn(C)c(=O)n(C)c4=O)c3Cl)c2Cl)cc2c1[C@H](N[C@@H]1COC[C@@H]1O)CC2` (single isomer, unassigned) [Compound A-108] are at most 10 nM and 100 to 1000 nM.
Molecule `COc1nc(-c2cccc(-c3cccc(NC(=O)c4ccnn(C)c4=O)c3C)c2Cl)cc2c1[C@@H](NC[C@@H]1CCC(=O)N1)CO2` [Compound A-46] had an IC50 in assay [1] of at most 10 nM. Besides, in assay [2] (Homo sapiens, Jurkat, 6 h), the EC50 was at most 10 nM.
In assay [1], `COc1nc(-c2cccc(-c3cccc(NC(=O)c4cn(C)c(=O)n(C)c4=O)c3Cl)c2Cl)cc2c1C(NCCO)CC2` [Compound D-5] had an IC50 of at most 10 nM. In assay [2] (Homo sapiens, Jurkat, 6 h), this molecule yielded an EC50 of 10 to 100 nM.
Molecule `COc1nc(-c2cccc(-c3cccc(NC(=O)c4cn(C)c(=O)n(C)c4=O)c3Cl)c2Cl)cc2c1[C@H](N1CC(O)C1)CC2` (single isomer, unassigned) [Compound A-27] registered an IC50 in assay [1] of at most 10 nM. The molecule further gave an EC50 in assay [2] (Homo sapiens, Jurkat, 6 h) of at most 10 nM.
As for `COc1nc(-c2cc(F)cc(-c3cc(F)cc(NC(=O)c4cn(C)c(=O)n(C)c4=O)c3C)c2Cl)cc2c1[C@@H](NC[C@@H]1CCC(=O)N1)CC2` [Compound A-64], the IC50 in assay [1] was at most 10 nM. The molecule further had an EC50 in assay [2] (Homo sapiens, Jurkat, 6 h) of at most 10 nM.
Consider `COc1nc(-c2cccc(-c3cccc(NC(=O)c4nn(C)c(=O)n(C)c4=O)c3C)c2Cl)cc2c1[C@@H](N[C@@H]1CCOC[C@H]1O)CC2` (single isomer, unassigned) [Compound A-95], for which the IC50 in assay [1] is at most 10 nM. For the same molecule, the EC50 in assay [2] (Homo sapiens, Jurkat, 6 h) was in the range of 100 to 1000 nM.

The values are drawn from US12534450B2, “Methods and compositions for targeting PD-L1” (Aligos Therapeutics, Inc., priority 2021, dated 2026).
